Test results published in a melting point compilation (Tetko et al.; mined from patent text by program, amines drawn as free bases though some values may be those of a salt).

melting point [°C]	SMILES
177 to 178	O=C1CCCc2c1c1cccc(F)c1n2Cc1ccc(F)cc1
188 to 191	O=C1NC(=O)C(Cc2ccc(OCC34CC5CC(CC(C5)C3)C4)cc2)S1 (centres undefined)
> 310	COc1cc2[nH]c(S)nc2cc1C
71.8	CCOC(=O)c1cc(C)nc2c(O)cccc12
75 to 80	CC(C)(C)C(OC(=O)Cl)C(Oc1ccc(Cl)cc1)N1CN=CN1 (centres undefined)
172 to 173	Cc1c2ccccc2c(-c2ccc(OS(C)(=O)=O)cc2)c2c1sc1ccccc12
127 to 129	CS(=O)(=O)c1ccc(-n2nc(C(F)(F)F)cc2-c2ccc(F)cc2)cc1
205	O=C(O)c1ccc(-c2nc(NCc3ccc4c(c3)OCO4)c3c4c(oc3n2)CCCC4)cc1
59.5 to 60	Clc1cc(Br)ccc1OCc1ccccc1
240 to 242	OC1CN(Cc2nc(-c3ccc4c(c3)Nc3ccccc3S4)cs2)C1
> 300	CCCCc1cc(C(=O)Nc2nnn[nH]2)nc(-c2ccc(N)cc2)c1
238 to 239	CC(C)(C)OC(=O)Nc1ccc(CN2C(=O)C3(COc4cc5c(cc43)OCCO5)c3ccccc32)cn1 (centres undefined)
190 to 191	COc1ccc(C=CC(=O)Nc2ccc(C)cc2C(=O)O)cc1OC
141 to 143	N#CC(=Cc1cccnc1)c1ccc(Cl)cc1
130 to 131	Cc1ccnc2c1C(=O)CC(c1cc(Cl)sc1Cl)C2 (centres undefined)
84 to 88	O=C(N[C@@H](CSc1ccccc1[N+](=O)[O-])C(=O)O)OCc1ccccc1
82 to 83	Cc1cnc(C)c(Cl)c1N
179 to 180	CS(=O)c1ccc(CSc2nnc(-c3ccc4ncsc4c3)o2)cc1C(F)(F)F (centres undefined)
68 to 69	O=Cc1csc(N2CCCCC2)n1
130 to 131	COc1ccnc2c1C(=O)CC(c1ccccc1)C2 (centres undefined)
142 to 143	CCCCc1nc2ccn(Cc3ccc([N+](=O)[O-])cc3)c(=O)c2n1Cc1ccc([N+](=O)[O-])cc1
66	O=C(c1ccc(C2=CCCCC2)cc1)N1Cc2cccn2Cc2ccccc21
127 to 129	Oc1ccc(CNCc2cccc(C(F)(F)F)c2)c2cccnc12

melting point [°C]	SMILES
72.3 to 73.1	CCOCC(C)Oc1ccc(COc2cnn(C(C)(C)C)c(=O)c2Cl)cc1 (centres undefined)
113 to 115	CCC(CC)NCc1cnc2c(C)c(NC(=O)c3ccc(OC[C@@H]4CCCO4)cc3)ccc2c1
233 to 234	COc1ccc(-n2nc(C(=O)O)c3c2CCCC3)cc1
148 to 149	N#Cc1cccc(-c2nc(-c3ccccn3)no2)c1
183 to 185	COc1ccn(-c2nc(C)c(C(=O)NCc3ccc(F)c(F)c3)s2)c(=O)c1
152 to 154	CCCN1CCN(c2cc3ccccc3c(=O)[nH]2)CC1CO (centres undefined)
264 to 266	C=CCC(CC=C)(CC=C)c1ccc(-c2nc3cc(C#N)c(C#N)cc3[nH]2)cc1
144 to 146	COCCOc1ccc(Sc2c(O)c3c(=O)n(-c4ccccc4)c4ccccc4c3oc2=O)cc1
179	CC(=O)OC1CSC(Oc2ccc(-c3cc4ccccc4o3)nc2)C(OC(C)=O)C1OC(C)=O (centres undefined)
107	CCC1(C(=O)Nc2ccc(OC)cc2)CCCCC1C (centres undefined)
89 to 90	CCNC(=O)/C=C/c1cccc(Br)c1
190 to 191	CC(C)(C)C(=O)CC(=O)c1ncn2c1c(=O)n(C(C)(C)C)c1ccccc12
222	Cc1cc(-c2ccc(C(F)(F)F)c(C)c2)nc(-c2cccc(-c3cccc(S(N)(=O)=O)c3)c2)n1
230 to 231	CC(C)COc1ccccc1-c1ncc(C(N)=O)c(=O)[nH]1
95 to 100	CCN(CC)C1CCCCC1Oc1ccc(Cc2c(-c3ccc(OCCN4CCCC4)cc3)sc3cc(O)ccc23)cc1 (centres undefined)
180 to 182	CC(=O)Nc1c(C#N)c(Cl)c(C#N)n1C
169 to 170	CCOC(=O)c1cn2c(cc(Cl)c3ccccc32)n1
179	COc1ncccc1-c1cccc(OC2SCC(OC(C)=O)C(OC(C)=O)C2OC(C)=O)c1 (centres undefined)
162	COc1ccc2cc(C(C)C(=O)NCCN(O)C(N)=O)ccc2c1 (centres undefined)
> 300	O=c1[nH][nH]c(=O)c2c(O)c(-c3ccccc3)ncc12
205	Clc1ccc(Cl)c(CN2CCNc3ncc(-c4ccc(Cl)nc4)cc32)c1
152 to 154	CC1(C)COc2c1cc(C=O)c(O)c2Br
186 to 187	O=C(OCc1ccccc1)c1ccc(OC(=O)c2ccc(C(=O)Oc3ccc(C(=O)OCc4ccccc4)cc3)cc2)cc1

melting point [°C]	SMILES
290 to 292	Nc1ncc(-c2ccc3ncc(-c4ccc(CO)cc4)n3n2)cc1C(F)(F)F
294	CC(=O)NNC(=N)c1ncc([N+](=O)[O-])n1C
97 to 98	CCOC(=O)c1cn2c3c(cc(F)cc3c1=O)C1CCCCC12 (centres undefined)
132 to 134	CC(C)C(C)(C)NC(=S)Nc1cc(Cl)cc(Cl)c1
164	NC(=O)c1coc(-c2ccc(Oc3ccc(F)cc3)cc2)n1
138	Cc1nc(-c2ccc3c(c2)COC(N[C@@H]2CCc4ccccc42)=N3)no1
184 to 186	CSC1=NS(=O)(=O)c2cscc21
215	COc1ccc2ccc(N3C(=O)C4=C(SCC(OC)CS4)C3OC(=O)N3CCN(C)CC3)nc2n1 (centres undefined)
144 to 145	CC(C#CC1CCC1)N(O)C(N)=O (centres undefined)
150	Cc1nc2n(c(=O)c1CCO)CCCN2Cc1ccccc1
77	CC/C(=C\CCC(O)(CC)CC)c1ccc(CCc2ccc(CO)c(CO)c2)s1
77 to 79	CC(C)(C)NC[C@H](Cc1ccc(OCc2ccccc2)cc1)NC(=O)OC(C)(C)C
141 to 143	COC(=O)NC(=O)c1ccc(C=NO)cc1C
171 to 173	O=C(CCCN1CCCCC1)c1ccc2[nH]c3ccc(C(=O)CCCN4CCCCC4)cc3c2c1
247 to 251	CSc1ncc2cc(Oc3c(F)cccc3F)c(=O)n(C)c2n1
96 to 99	CCNC(=O)n1c([Si](C)(C)C)cc2ccccc21
81 to 82	O=C(NC1(c2cccc(F)c2)CCC1)OCc1ccccc1
185 to 187	CC(=O)c1nc(-c2ccncc2C)[nH]c1C
125 to 126	CC(C)(C)C(=O)Oc1ccc2c3c(cnc2c1)CCCC3O[Si](C)(C)C(C)(C)C (centres undefined)
184 to 185	CC(=O)N1CCCn2nc(-c3ccncc3)c(-c3ccc(F)cc3)c21
210 to 211	CCCc1nc2c(N)nc3ccccc3c2n1OC
232 to 234	C[C@H](NC(=O)c1c[nH]c2ncc(C3CC3)nc12)C(C)(C)CS(C)(=O)=O
58 to 60	CC(=O)C1(COC(=O)Oc2ccccc2)CC2C=CC1CC2 (centres undefined)

SMILES	melting point [°C]
CCC1(C2OC(C3OC(O)(CO)C(C)CC3C)CC2C)CCC(C2(C)CCC3(CC(O)C(C)C(C(C)C(OC)C(C)C(=O)O)O3)O2)O1 (centres undefined)	78 to 80
Cc1nnc(S(=O)(=O)C(Br)(Br)Br)s1	169 to 173
CNC(=O)C1C(C)(C)C1(C)C	98
NC(=O)c1ccc([N+](=O)[O-])c(N2CC2)c1	223 to 224
CN(C)C(=O)Oc1ccc2nc(S(N)(=O)=O)sc2c1	208 to 209
